The text below walks through data of US5677327A, “Method for identifying muscarinic agents lacking miotic side effects” (priority 1995, dated 1997).

The target of data set [1] is T1, human m3 receptor subtype (Homo sapiens, UniProt P20309).
T1 construct: expressed in transfected cells
Nature of the data set: Agonist-induced hydrolysis of inositol phospholipids (PI hydrolysis) in CHO-K1 cells expressing m3. Type of data set: cell-based. Conditions: for Emax: CHO-K1, 0.5 h, read-out: MAXIMUM RESPONSE BY MUSCARINIC AGONISTS, m3 cells; for EC50: CHO-K1 m3 cells, EC50 calculated as 50% of the maximum response of the PI hydrolysis, read-out: POTENCY ON PI HYDROLYSIS, EC 50, m3 cells. The procedure:
(§1) Chinese hamster ovary (CHO-K1) cells stably expressing the human m3 or m5 receptor subtype were grown to confluency in DMEM/F12 medium containing 10% fetal calf serum and 1 unit/ml penicillin/streptomycin in a 37° C. incubator. Activity of muscarinic agonists in these cells was determined by measuring agonist induced hydrolysis of inositol phospholipids. Confluent cells plated at 0.1×10^6 cells/well in a 24-well dish were incubated in medium containing 4 μCi/ml myo-[2-^3 H] inositol overnight. This labels the inositol phospholipids in the cells. The next morning, the cells were washed to remove excess medium and incubated for 10 minutes before and 30 minutes after the addition of various muscarinic agonists in assay buffer containing 10 mM LiCl. The hydrolysis of inositol phospholipids generates inositol phosphates which were extracted and separated on dowex-formate columns and radioactivity determined. Radioactivity of the unhydrolyzed inositol phospholipids was also determined and percent hydrolysis calculated as a measure of agonist activity.
(§2) The EC50 was calculated as 50% of the maximum response of the PI hydrolysis

A short description of data set [2]: Test for lowering IOP and miosis. It is filed as in vivo. Particulars: for IOP-lowering: in vivo; for miosis: side effect when tested for lowering IOP.
For data set [3], the target named is T2, human m5 receptor subtype (Homo sapiens, UniProt P08912).
T2 construct: expressed in transfected cells
T2 sequence (P08912 1-532): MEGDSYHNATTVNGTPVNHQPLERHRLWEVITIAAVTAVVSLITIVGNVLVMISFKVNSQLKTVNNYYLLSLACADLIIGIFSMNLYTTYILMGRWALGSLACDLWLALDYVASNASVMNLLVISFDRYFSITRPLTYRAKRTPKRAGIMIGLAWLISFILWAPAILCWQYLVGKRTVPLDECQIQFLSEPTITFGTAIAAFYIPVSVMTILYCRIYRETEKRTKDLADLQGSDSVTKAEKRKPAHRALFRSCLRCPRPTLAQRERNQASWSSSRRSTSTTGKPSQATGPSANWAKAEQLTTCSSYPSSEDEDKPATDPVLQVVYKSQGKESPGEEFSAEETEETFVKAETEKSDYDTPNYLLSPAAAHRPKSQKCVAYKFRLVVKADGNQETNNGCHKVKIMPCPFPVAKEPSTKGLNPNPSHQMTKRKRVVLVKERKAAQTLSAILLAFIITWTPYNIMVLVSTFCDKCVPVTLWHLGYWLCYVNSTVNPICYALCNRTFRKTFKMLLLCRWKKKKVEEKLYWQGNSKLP
Nature of the data set: Agonist-induced hydrolysis of inositol phospholipids (PI hydrolysis) in CHO-K1 cells expressing m5. It is filed as cell-based. Particulars: for Emax: CHO-K1, 0.5 h; for EC50: CHO-K1 m5 cells, EC50 calculated as 50% of the maximum response of the PI hydrolysis, read-out: POTENCY ON PI HYDROLYSIS, EC 50, m5 cells; for m3/m5 ratio: ratio of EC50 at m3 to EC50 at m5, 30 min. The procedure: as §1, §2

The mark [4] stands for this setting: read-out: MAXIMUM RESPONSE BY MUSCARINIC AGONISTS, m5 cells, read-out: MAXIMUM RESPONSE BY […] AGONISTS, m5 cells.

Like-named read-outs stand apart in the source and are kept apart here.

T1 sequence (P20309 whole entry): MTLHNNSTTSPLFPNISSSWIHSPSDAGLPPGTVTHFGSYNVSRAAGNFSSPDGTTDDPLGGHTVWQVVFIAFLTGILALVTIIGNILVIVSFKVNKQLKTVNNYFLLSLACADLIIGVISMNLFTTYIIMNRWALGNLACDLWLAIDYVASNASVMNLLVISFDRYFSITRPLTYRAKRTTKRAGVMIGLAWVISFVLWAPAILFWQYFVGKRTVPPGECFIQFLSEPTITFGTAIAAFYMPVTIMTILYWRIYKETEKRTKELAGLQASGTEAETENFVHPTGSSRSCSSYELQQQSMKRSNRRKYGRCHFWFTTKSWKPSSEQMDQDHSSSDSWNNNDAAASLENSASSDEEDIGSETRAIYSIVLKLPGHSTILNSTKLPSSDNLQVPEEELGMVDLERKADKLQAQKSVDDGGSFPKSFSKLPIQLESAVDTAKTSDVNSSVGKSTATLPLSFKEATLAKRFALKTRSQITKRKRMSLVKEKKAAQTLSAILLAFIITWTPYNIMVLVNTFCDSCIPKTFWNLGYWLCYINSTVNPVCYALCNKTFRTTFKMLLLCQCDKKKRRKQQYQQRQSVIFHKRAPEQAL

Consider `CC[C@H]1C(=O)NC[C@@H]1Cc1cncn1C` [AGN 190456, 3R, 4R-ethyl-[(1-methyl-1H-imidazol-5-yl)methyl]-2-pyrrolidinone], for which, in data set [1], the Emax turned out to be 70 ± 7% and the EC50 was 20000 nM. Moreover, in data set [2], the IOP-lowering result is “effective” and the miosis entry was “minimal miosis”. Moreover, the Emax in data set [3] (setting [4]) turned out to be 84 ± 11%. Also, in data set [3], the EC50 is 5000 nM and the m3/m5 ratio is given as 4.
For the compound `CC(=O)N(C)C(C)C#CCN1CCCC1` (centres unmarked) [BM-5, N-Methyl-N-(1-methyl-4-pyrrolidino-2-butynyl)acetamide], in data set [1], the Emax was 30 ± 3% and the EC50 is 300 nM. Moreover, in data set [2], the IOP-lowering result is on record as “IOP-lowering” and the miosis entry is recorded as “miosis”. Further, the Emax in data set [3] (setting [4]) is 30 ± 2%. Also, the Emax in data set [3] (read-out: hydrolysis elicited relative to carbachol at the m5 receptor) was determined as 30%. In data set [3], the EC50 was 60 nM and the m3/m5 ratio is 5.
For the compound `CC1CCC(=O)N1CC#CCN1CCC1` (centres unmarked) [BR-370, N-(4-Azetidinyl-2-butynyl)-5-methyl-2-pyrrolidone], the Emax in data set [1] came out at 96 ± 40%; in data set [3] (read-out: MAXIMUM RESPONSE BY MUSCARINIC AGONISTS, m5 cells) it was 110 ± 8%. In addition, the EC50 was 800 nM in data set [1] and 700 nM in data set [3].
As to `C[N+](C)(C)CCOC(N)=O` [CARBACHOL, carbachol], the Emax in data set [3] (setting [4]) was found to be 100%.
